This passage reports cytotoxicity results from ChEMBL document CHEMBL3507680, “University of Dundee, Gates Library screen for HepG2 cell viability”.

A short description of the data set: Human HepG2 cell viability assay in 384 well format. In kind it is toxicity, cell-based. Set-up: dose 125 nL, time 70.5 hour; cytotoxicity at 70.5 h: concentration not given beside the values. As to conditions: HepG2 cells, read-out: Inhibition.

Take `NC(=O)C1CCN(C(=O)CCSCc2ccc(Cl)c(Cl)c2)CC1`: the cytotoxicity at 70.5 h is -7.23%.
As for `O=C(O)c1ccnc(SCC(=O)c2ccccc2)c1`, the figure is 14.5%; as for `Cn1cnc2nc3n(c2c1=O)CCC3`, 13.6%; as for `COC(=O)c1cnn(-c2cc(Oc3cccc(C)c3)ncn2)c1N`, 4%.
In the case of `O=S(=O)(c1cnccc1N1CCN(CCO)CC1)N1CCCCC1`, the cytotoxicity at 70.5 h was 27.8%.
As for `CCCN(CCC)c1nc(N)nc(-c2cc(Cl)ccc2OC)n1`, the figure is -2.85%; as for `CN1CCN(c2ccncc2S(=O)(=O)N2CCCCC2)CC1`, 0.146%; as for `O=c1ncn(-c2cccc(F)c2)c2ncccc12`, -0.419%.
As for `Cc1ccccc1C(O)c1ccncc1` (configuration not stated), the figure is -8.85%; as for `COC(=O)Cn1c(=O)nc2n1C(=O)N(c1cccc(Cl)c1)C2`, -5.07%.
As for `CCOc1ccc(Oc2cc(N)ccn2)cc1`, the figure is -4.03%; as for `O=c1[nH]c2ccccc2c2c1CCO2`, -2.59%.
On to `COc1ccc(Cl)cc1-c1nc(N)nc(N)n1`, for which the cytotoxicity at 70.5 h is 26%.
On to `COc1ccccc1-n1c(O)cc(C)c(C#N)c1=O`, for which the cytotoxicity at 70.5 h is -1.09%.
For `CNS(=O)(=O)c1cnccc1N1CCN(C(C)C)CC1`, the cytotoxicity at 70.5 h turned out to be 2.6%.
As for `CCC(=O)NS(=O)(=O)c1cccnc1Nc1cccc(Cl)c1Cl`, the figure is 31.6%; as for `Cn1ccnc1Sc1ccc(S(N)(=O)=O)cn1`, -5.03%.
Consider `O=S(=O)(c1cnccc1N1CCN(CCO)CC1)N1CCOCC1`, for which the cytotoxicity at 70.5 h turned out to be 11.8%.
As for `Cn1cc(I)c(C(=O)NC2CCCC2)n1`, the figure is 10.4%; as for `CCC(CO)NCc1ccc(-c2ccccc2F)o1` (configuration not stated), -6.8%.
As to `O=C(CSc1nnc2n1N=CN(c1ccccc1)C2)c1ccccc1`, the cytotoxicity at 70.5 h was -7.5%.
Regarding `CC(=O)CSc1nnc2n1N=CN(c1cccc(Cl)c1)C2`, the cytotoxicity at 70.5 h is -8.9%.
As for `CCOC1Sc2nnc(C)n2N=C1c1ccc(F)cc1` (configuration not stated), the cytotoxicity at 70.5 h was -5.95%.
As to `CC(=O)c1c(O)n(C)c2ccccc12`, the cytotoxicity at 70.5 h was 25.3%.
As for `COc1cc(C)c2c(c1C)C[C@@H](C(C)C(=O)O)CC2` (some centres not stated), the figure is -3.12%.
Take `CN(C)Cc1cn(-c2ccccc2C(=O)NCCC2CCCN2C)cn1` (configuration not stated): the cytotoxicity at 70.5 h is 24.5%.
As for `COCCN1CCCC(c2nccnc2-c2cccc(Cl)c2)C1` (configuration not stated), the figure is 21%; as for `COc1ccccc1-c1cccc(C2CCCN(C3CCOCC3)C2)n1` (configuration not stated), 22.7%.
As for `CO[C@@H]1CCC[C@@H](NC(=O)c2cccc(F)c2)[C@H]1O`, the figure is -1.9%.
As for `CNC(=O)c1ccc(C2CN(c3cc(C)nc(N)n3)CCO2)nc1` (configuration not stated), the figure is 20%.
Turning to `COCCN1CCN(Cc2cnc(C3(C)CCCCO3)nc2)CC1` (configuration not stated), the cytotoxicity at 70.5 h is 0.727%.
As to `Cn1nccc1CN1CCOC(c2ccc(-c3cncnc3)cn2)C1` (configuration not stated), the cytotoxicity at 70.5 h is -6.28%.
On to `Cn1nccc1-c1cncc(C2CCCN(S(C)(=O)=O)C2)n1` (configuration not stated), for which the cytotoxicity at 70.5 h is -7.56%.
As for `Cn1nccc1-c1cccc(CC2CCN(S(C)(=O)=O)C2)n1` (configuration not stated), the figure is -4.28%; as for `COc1ccc(Cc2nnc(NC(=O)C3CC34CCC4)s2)cc1OC` (configuration not stated), 0.282%; as for `COc1nsc2nc(C3CCCN3C(C)=O)ccc12` (configuration not stated), -3.15%.
As for `CC(=O)N[C@@H]1CN(C(=O)c2cccc(C)c2)C[C@H]1O`, the figure is -8.6%; as for `Cc1nc(N(C)C)cc(C2(C)CCCNC2)n1` (configuration not stated), -2.1%.
As for `CC1(c2ncc(CN3CCN(c4ccccn4)CC3)cn2)CCCCO1` (configuration not stated), the figure is -1.83%; as for `CN(C)Cc1cn(-c2ccccc2C(=O)NCC2CCCCN2C)cn1` (configuration not stated), 25.3%.
For `CCC(=O)N1CCOC(c2cc(Nc3nncs3)cc(C)n2)C1` (configuration not stated), the cytotoxicity at 70.5 h was -5.24%.
As for `CS(=O)(=O)N1CCCC(c2cccc(-c3ccccc3F)n2)C1` (configuration not stated), the figure is -7.63%; as for `O=C(c1cnco1)N1CCC(Cc2cnc3ccccc3c2)CC1`, -1.49%.
As for `O=S(=O)(c1cn[nH]c1)N1CCC(O)(CN2CCC(F)(F)CC2)C1` (configuration not stated), the figure is 1.83%; as for `Cc1cccc(C)c1Nc1noc2c1CN(C(=O)c1ccn(C)n1)CC2`, 46.4%.
As for `Cc1nn(C)cc1CN1CCC(c2ncc(Cl)cc2S(C)(=O)=O)CC1`, the figure is -6.84%; as for `CC(C)c1cc(C(=O)N2CCN(c3ncc4c(n3)CCOC4)CC2)on1`, 14.5%.
Turning to `O=C(NCc1ccnc(C2CCCOC2)n1)c1cccs1` (configuration not stated), the cytotoxicity at 70.5 h was 14.1%.
Consider `CN1CCCC(c2nccnc2-c2cccc(Cl)c2)C1` (configuration not stated), for which the cytotoxicity at 70.5 h was -9.62%.
Turning to `CO[C@@H]1CCC[C@@H](NC(=O)C(C)(C)c2cccc(F)c2)[C@H]1O`, the cytotoxicity at 70.5 h is -7.35%.
Regarding `CC(=O)Nc1cccc([C@H]2C[C@@H](NC(C)=O)CCO2)c1`, the cytotoxicity at 70.5 h was found to be 13.2%.
In the case of `Cc1nn(C)cc1CN1CCCC1c1cccc(Nc2nccs2)n1` (configuration not stated), the cytotoxicity at 70.5 h came out at 35.9%.
Take `COc1cccc(F)c1CN1CCC(c2nccc(C)n2)C1` (configuration not stated): the cytotoxicity at 70.5 h was -9.63%.
As for `Cc1cc(-c2ccnn2C)nc(C2CCCN(S(C)(=O)=O)C2)n1` (configuration not stated), the figure is -13.9%.
With `Cn1cnc(CN2Cc3nccn3CC2c2ccccc2)c1` (configuration not stated), the cytotoxicity at 70.5 h is -7.94%.
As for `CCCN(CCO)S(=O)(=O)c1ccc2[nH]c(=O)[nH]c2c1`, the figure is 1.55%; as for `CN(Cc1ncc(-c2ccccc2C(=O)O)s1)c1ncccn1`, 31.6%.
As for `CC(=O)N1CC(c2ccnc(Nc3nccs3)n2)C1`, the figure is -12.9%; as for `O=C(NCCc1cc(N2CCOCC2)nc(N2CCCC2)n1)C1CC1`, -5.52%.
Turning to `COc1cc(CCC(=O)N2CCC(c3cc4ncc(C)nc4[nH]3)C2)on1` (configuration not stated), the cytotoxicity at 70.5 h is 19.5%.
Take `O=C(NCCc1cc(N2CCOCC2)nc(NC2CC2)n1)C1CCCO1` (configuration not stated): the cytotoxicity at 70.5 h is -6.3%.
On to `O=C(NCCc1cc(N2CCOCC2)nc(NC2CC2)n1)C1CC1`, for which the cytotoxicity at 70.5 h is -14%.
For the compound `Cc1nonc1CNC(=O)C(C)Oc1ccccc1F` (configuration not stated), the cytotoxicity at 70.5 h is -7.96%.
As for `CN(C)S(=O)(=O)N1CCOC(c2cccc(-c3cncnc3)n2)C1` (configuration not stated), the figure is -10.8%.
As for `CN1CCCCC1(C)C(=O)N1CCC(c2ccccn2)CC1` (configuration not stated), the figure is 14.5%; as for `O=C(O)c1ccccc1-c1ccc(CN2CC(c3ccncn3)C2)o1`, -5.44%; as for `Cc1cncnc1C1CCN(C(=O)C2(C)CCCCN2C)CC1` (configuration not stated), -4.92%.
On to `CCC(O)Cn1nc(-c2ccc(C(=O)O)cc2)cc1-c1ccc(F)cc1` (configuration not stated), for which the cytotoxicity at 70.5 h is -5.44%.
Regarding `CC1(c2ncc(CN(CC(=O)O)Cc3ccccc3)cn2)CCCCO1` (configuration not stated), the cytotoxicity at 70.5 h is -7.96%.
As for `O=c1[nH]c2ccc(S(=O)(=O)N(CCO)Cc3ccncc3)cc2[nH]1`, the figure is -4.4%; as for `CN(C)c1cccc(C(=O)N2CCn3c(nnc3C3CC3)C2)c1`, 19.2%; as for `Cc1cc(-c2cnc(N3CCSCC3)nc2C(C)C)on1`, -0.852%.
As for `Cc1cc(-c2cnc(N3CCCC3)nc2C(C)C)on1`, the figure is -7.72%.
As for `CC(=O)NCCc1cc2nc(-c3ccncc3)ccn2n1`, the figure is -4.37%; as for `CCc1cc(O)n2nc(C3CCN(C(=O)c4ccncc4)CC3)cc2n1`, 20.6%.
`CN1CCN([C@@H]2CN(C(=O)CCOc3ccccc3)C[C@H]2O)CC1`: the cytotoxicity at 70.5 h came to 10.8%.
On to `Cn1ccc2cc(CC3COCCN(C(=O)c4ccccn4)C3)ccc21` (configuration not stated), for which the cytotoxicity at 70.5 h is -6.94%.
With `Cc1cc(Oc2ccccc2)nc(C2CCN(CCO)CC2)n1`, the cytotoxicity at 70.5 h is -6.09%.
As to `Cc1nc2ccc(C(=O)N3CCn4c(nnc4C4CC4)C3)cc2nc1C`, the cytotoxicity at 70.5 h was -4.74%.
`CC1CCCCN1c1nc2c(c(=O)[nH]1)CCN(Cc1ccccc1F)C2` (configuration not stated): the cytotoxicity at 70.5 h is -5.68%.
For `CCN(CC)C(=O)Cn1c(=O)n(Cc2ccco2)c2ncccc21`, the cytotoxicity at 70.5 h was -3.1%.
Take `Cc1ccsc1CN1CCc2c(nc(N3CCCCC3C)[nH]c2=O)C1` (configuration not stated): the cytotoxicity at 70.5 h is -6.71%.
As for `CCN1CCN(c2ncc(-c3cc(C)no3)c(-c3ccco3)n2)CC1`, the figure is -3.95%; as for `COc1cnc(C2(O)CCN(C(=O)c3ccco3)CC2)c(OC)n1`, -9.83%; as for `O=S(=O)(c1ccc(F)cc1)N1CCCC1c1cc[nH]n1` (configuration not stated), -7.22%.
As for `O=S(=O)(c1ccccc1)N1CCCC1c1cc[nH]n1` (configuration not stated), the figure is -8.7%.
As for `Cc1ccc(C(=O)N2CC[C@H](Oc3cccnc3C)[C@@H](O)CC2)s1`, the figure is 4.2%; as for `CCn1cc(CN2CCC(c3[nH]ncc3S(C)(=O)=O)C2)cn1` (configuration not stated), 0.805%; as for `O=C(CCN1CCCC1)Nc1c2c(cc3c1CCC3)CCC2`, -0.353%.
With `O=C(c1cccnc1N1CCN(CCO)CC1)N1CCCC1`, the cytotoxicity at 70.5 h was -1.63%.
As for `CCC(CO)NCc1ccc(-c2ccc(Br)cc2)o1` (configuration not stated), the cytotoxicity at 70.5 h amounted to 0.103%.
For `CCC(CO)NCc1ccc(-c2ccc(F)c(Cl)c2)o1` (configuration not stated), the cytotoxicity at 70.5 h turned out to be 3.9%.
As for `CCC(CN1CCCC1)n1cncc1-c1cnn(-c2ccccc2)c1` (configuration not stated), the figure is -2.29%.
Take `Cc1cc(F)ccc1-c1ccccc1CC1CNCCNC1=O` (configuration not stated): the cytotoxicity at 70.5 h was found to be 5.41%.
For the compound `NC1CCc2nc(-c3ccncc3)nc(Nc3cccc(F)c3)c2C1` (configuration not stated), the cytotoxicity at 70.5 h amounted to 9.56%.
As for `FC(F)(F)c1nc(C2CCNCC2)no1`, the figure is -2.97%; as for `Cn1ccnc1C1(O)CCN(C(=O)CCc2ccccc2)CC1`, -5.37%.
As for `Cn1ccnc1C1(O)CCN(C(=O)Cc2ccccc2)CC1`, the figure is -6.34%.
Turning to `FC(F)CNc1cnc(C2CCNCC2)cn1`, the cytotoxicity at 70.5 h is -5.8%.
As for `COc1ccc(CN(C)[C@@H]2COC[C@H]2c2ccc(F)cc2)cc1`, the figure is -10.1%; as for `Cc1c(NC(=O)CN2CCN(C3CCCC3)C(=O)C2)cnn1C`, -2.64%; as for `c1ccc(Sc2ccc3c(c2)OCO3)c(CNC2=NCCN2)c1`, -0.794%.
